# Measured values published in publication PMC11356571, “The Comparative Metabolism of a Novel Hepatocellular Carcinoma Therapeutic Agent, 2,3-Diamino-N-(4-(benzo[d]thiazol-2-yl)phenyl)propanamide, in Human and Animal Hepatocytes” (Metabolites, 2024).
# Counter-ions that a name gives are not always drawn.
# Legend:
# Format in all cases: in vitro ADME
# [1] = tested on: human hepatocytes; test: Metabolite characterization in human hepatocytes; details: human hepatocyte 1 h incubates of ETN101; ND:<1.2E+05 peak area
# Protocol: (§1) We mixed 60 μL aliquots of 40 μM ETN101 in incubation medium and an equal volume of human, mouse, rat, dog, or monkey hepatocyte suspension in 96-well plates and incubated for 0 or 1 h in a CO2 incubator at 37 °C. The reactions were quenched by adding 120 µL of ice-cold acetonitrile to each well, and the cell suspension was sonicated for 5 min at 4 °C. Subsequently, centrifugation was carried out at 15,000× g for 10 min at 4 °C. Next, the supernatants were evaporated to dryness using a vacuum concentrator, and residues were re-dissolved in 70 μL of 30% acetonitrile. Each sample (5 μL aliquots) was analyzed using LC–HRMS system.
# (§2) For metabolite characterization, a Vanquish HPLC system (Thermo Fisher Scientific, San José, CA, USA) coupled with a Q-Exactive Orbitrap mass spectrometer (Thermo Fisher Scientific Inc., Waltham, MA, USA) was used at Core Research Support Center for Natural Products and Medical Materials at Yeungnam University. […] The eluent from the column was directly injected into the mass spectrometer using a heated electrospray ionization (HESI) source in positive ionization mode. […] The spray voltage was 3.0 kV and the capillary temperature was 320 °C. Full scan MS^1 with a data-dependent MS^2 acquisition mode was applied to obtain MS^1 scan data ranging from m/z 80 to 900, at a resolution of 70,000, whereas data-dependent MS^2 spectra were acquired for the five most abundant peaks per cycle at a resolution of 35,000. The parallel reaction monitoring (PRM) mode was used to obtain the MS^2 spectra of putative metabolites detected at low peak intensities in the data-dependent MS^2 acquisition mode. Data were collected and interpreted using Thermo Scientific Xcalibur™ Software (Thermo Fisher Scientific).
# [2] = tested on: mouse hepatocytes; test: Metabolite characterization in mouse hepatocytes; details: mouse hepatocyte 1 h incubates of ETN101; ND:<1.2E+05 peak area
# Protocol: as §1, §2
# [3] = tested on: rat hepatocytes; test: Metabolite characterization in rat hepatocytes; details: rat hepatocyte 1 h incubates of ETN101; ND:<1.2E+05 peak area
# Protocol: as §1, §2
# [4] = tested on: monkey hepatocytes; test: Metabolite characterization in monkey hepatocytes; details: monkey hepatocyte 1 h incubates of ETN101; ND:<1.2E+05 peak area
# Protocol: as §1, §2
# [5] = tested on: dog hepatocytes; test: Metabolite characterization in dog hepatocytes; details: dog hepatocyte 1 h incubates of ETN101; ND:<1.2E+05 peak area
# Protocol: as §1, §2
Relative peak area (%) [1] [%],Relative peak area (%) [2] [%],Relative peak area (%) [3] [%],Relative peak area (%) [4] [%],Relative peak area (%) [5] [%],SMILES
0.3,0.9,5.7,5.8,,"CC(=O)Nc1ccc(-c2nc3ccccc3s2)cc1 [M2, N-Acetyl-CJM-126]"
0.1,< 0.1,< 0.1,< 0.1,< 0.1,"Nc1ccc(-c2nc3ccccc3s2)cc1O [M5, 3′-OH-CJM-126]"
0.1,< 0.1,0.1,< 0.1,0.5,"O=C(O)[C@H]1O[C@@H](Nc2ccc(-c3nc4ccccc4s3)cc2)[C@H](O)[C@@H](O)[C@@H]1O [M9, CJM-126 glucuronide]"
,,< 0.1,,,"O=S(=O)(O)Nc1ccc(-c2nc3ccccc3s2)cc1 [M10, CJM-126 sulfate]"
